Experimental data published in patent US20080280879A1, “SUBSTITUTED HETEROCYCLIC DERIVATIVES AND THEIR PHARMACEUTICAL USE AND COMPOSITIONS” (priority 2007, published 2008).
≈ marks a conversion by molar mass, not a printed value.

Legend:
Type in all cases: cell-based, Staphylococcus aureus
Staph aureus 1146 [1] = test: MIC in Mueller-Hinton Broth with 50% pooled inactivated human serum, Assay 1, Table 12; conditions: for MIC, column C: Staph aureus 1146, Assay 1, 50% human serum
Summary of the method: (§1)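 CLSI microdilution (M7-A7; M100-S16 interpretation); DMSO stocks at 10 mg/ml; endpoint = no macroscopically visible growth; MIC μg/ml, geometric mean if run more than once.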

Staph aureus 1031 [2] = test: MIC in Mueller-Hinton Broth with 50% pooled inactivated human serum, Assay 2, Table 12 column G; conditions: for MIC, column G: Staph aureus 1031, Assay 2, 50% human serum
Protocol: (§2) The assays described herein include a panel of bacterial isolates of Staphylococcus aureus. Assay 1 comprises the strains noted in Columns A through E, and Assay 2 comprises the strains noted in Columns F through H. The assays are performed in microtiter trays according to Methods for Dilution Antimicrobial Susceptibility Tests for Bacteria that Grow Aerobically; Approved Standard-7th edition (M7-A7) and interpreted according to the Performance Standards for Antimicrobial Susceptibility Testing; 16th Informational Supplement (M100-S16) published by Clinical Laboratory Standards Institute (CLSI). The antibacterial activity is presented in the form of a minimum inhibitory concentration (MIC) value in μg/ml format. The MIC value represents the lowest concentration of drug measured which prevented macroscopically visible growth under the conditions and specific doses tested. The compounds were initially dissolved in DMSO as 30 mM stocks and diluted accordingly to adjust to a concentration of 10 mg/ml or the compounds were dissolved in DMSO at a concentration of 10 mg/ml. For assessment of activity in the presence of human serum, S. aureus 1146 and S. aureus 1031 were inoculated into Mueller-Hinton Broth with 50% pooled inactivated human serum. In some cases, compounds were tested more than once in a particular assay. Where noted, the MIC value shown in Table 12 represents the geometric mean of the data from multiple runs.
(§3) It should be understood that the data in columns A-H represents MIC data in μg/ml and the notation “<=” means ‘less than or equal to’.

Staph aureus 2812 = test: MIC, microtiter broth dilution (CLSI M7-A7), Assay 1, Table 12 column E, no serum; conditions: for MIC, column E: Staph aureus 2812, Assay 1, no serum; for MIC: Staphylococcus aureus, 2812, Staph aureus 2812, Assay 1, no serum
Summary of the method: as §1

Staph aureus 1031 [3] = test: MIC, microtiter broth dilution (CLSI M7-A7), Assay 2, Table 12 column F, no serum; conditions: for MIC, column F: Staph aureus 1031, Assay 2, no serum
Protocol: as §2, §3

Staph aureus 1095 MRSA = test: MIC, microtiter broth dilution (CLSI M7-A7), Assay 1, Table 12 column A, no serum; conditions: Assay 1, no serum; for MIC: Staphylococcus aureus, MRSA
Summary of the method: as §1

Staph aureus 1146 [4] = test: MIC, microtiter broth dilution (CLSI M7-A7), Assay 1, Table 12 column B, no serum; conditions: for MIC, column B: Staph aureus 1146, Assay 1, no serum
Summary of the method: as §1

Staph aureus 2810 = test: MIC, microtiter broth dilution (CLSI M7-A7), Assay 2, Table 12 column H, no serum; conditions: for MIC, column H: Staph aureus 2810, Assay 2, no serum
Protocol: as §2, §3

Staph aureus 2811 = test: MIC, microtiter broth dilution (CLSI M7-A7), Assay 1, Table 12 column D, no serum; conditions: for MIC, column D: Staph aureus 2811, Assay 1, no serum
Summary of the method: as §1

Compound	MIC, column C (Staph aureus 1146 [1]) [µg/mL]	MIC, column G (Staph aureus 1031 [2]) [µg/mL]	MIC, column E (Staph aureus 2812) [µg/mL]	MIC, column F (Staph aureus 1031 [3]) [µg/mL]	MIC, column A (Staph aureus 1095 MRSA) [µg/mL]	MIC, column B (Staph aureus 1146 [4])	MIC, column H (Staph aureus 2810)	MIC, column D (Staph aureus 2811)	MIC (Staph aureus 1146 [1]; Staphylococcus aureus, 1146, Staph aureus 1146, Assay 1, 50% human serum, read-out: MIC, column C) [µg/mL]	MIC (Staph aureus 1031 [2]; Staphylococcus aureus, 1031, Staph aureus 1031, Assay 2, 50% human serum) [µg/mL]	MIC (Staph aureus 2812) [µg/mL]	MIC (Staph aureus 1031 [3]; Staphylococcus aureus, 1031, Staph aureus 1031, Assay 2, no serum) [µg/mL]	MIC (Staph aureus 1095 MRSA) [µg/mL]	MIC (Staph aureus 1146 [4]; Staphylococcus aureus, 1146, Staph aureus 1146, Assay 1, no serum) [µg/mL]	MIC (Staph aureus 2810; Staphylococcus aureus, 2810, Staph aureus 2810, Assay 2, no serum) [µg/mL]	MIC (Staph aureus 2811; Staphylococcus aureus, 2811, Staph aureus 2811, Assay 1, no serum) [µg/mL]
4-{[2-(3-chloro-6-methoxyquinolin-4-yl)ethyl]amino}-1-[(2-phenylcyclopropyl)ethyl]zepane-4-carboxylic acid [Example 151]	32	64	4	2	8	4 µg/mL	2 µg/mL	2 µg/mL	–	–	–	–	–	–	–	–
COC(=O)[C@H]1CN(C[C@@H]2C[C@H]2c2ccccc2)CC[C@H]1CCC(O)c1ccnc2ccc(OC)cc12 (mixture of isomers) [Example 5, methyl (3R,4R)-4-[3-hydroxy-3-(6-methoxyquinolin-4-yl)propyl]-1-{[(trans)-2-phenylcyclopropyl]methyl}piperidine-3-carboxylate]	–	–	–	–	–	–	–	–	32	64	4	4	2	4	8	8
COc1ccc2nccc(C(O)CC[C@@H]3CCN(C4CC(c5ccccc5)C4)C[C@@H]3C(=O)O)c2c1 (single isomer, unassigned) [Example 2]	0.4629 (≈ 0.975 µM)	0.5 (≈ 1.05 µM)	–	0.125 (≈ 0.263 µM)	–	<=.0625 μg/ml	<=.0625 μg/ml	<=.0884 μg/ml	–	–	0.158 (≈ 0.332 µM)	–	0.25 (≈ 0.527 µM)	–	–	–
COc1ccc2nccc(C(O)CC[C@@H]3CCN(C4CC(c5ccccc5)C4)C[C@@H]3C(=O)O)c2c1 (single isomer, unassigned) [Example 3]	1.7818 (≈ 3.75 µM)	4 (≈ 8.43 µM)	0.25 (≈ 0.527 µM)	0.5 (≈ 1.05 µM)	0.25 (≈ 0.527 µM)	<=.1768 μg/ml	0.5 µg/mL (≈ 1.05 µM)	<=.25 μg/ml	–	–	–	–	–	–	–	–
